From paper PMC8455565 (Scientific Reports, 2021) come the findings set out here.

pIC50: −log10 of the molar value.

For assay [1], the system named is B cells. Description: Antigen-presentation assay (OVA-preactivated B cells with DO11.10 T cells). Format: cell-based, mouse. The procedure: DO11.10 and BALB/C mice were purchased from The Jackson Laboratory and housed in accordance with the policies of the IACUC of Eli Lilly and Company. BALB/C mice were primed with 10 µg/ml ovalbumin (OVA) in Alhydrogel (InvivoGen, CA, USA) at a 2:1 ratio and boosted with 10 µg/ml OVA in PBS 2 weeks after priming. BALB/C mice were sacrificed 4 days after boosting, and B cells were purified from splenocytes using CD19 microbeads (Miltenyi Biotec) for positive selection. B cells were preincubated with HM71305/LSN3359180 for 1 h before the addition of OVA protein or OVA323-339 peptide, and T cells were positively isolated from DO11.10 transgenic mice using CD4 microbeads (Miltenyi Biotec). The supernatants were collected after 18 h, and IL-2 was measured by ELISA using mouse IL-2 DuoSet (DY402, R&D Systems). FACS analysis of CD69 (H1.2F3, Biolegend), CD86 (B7-2, BD Biosciences) and H2-IA/IE (M5/114.15.3, BD Biosciences) was performed using BD LSR Fortessa, and data were analyzed by FlowJo10 (FlowJo, LLC).

For the next assay, the target named is T1, JAK3 (Homo sapiens, UniProt P52333).
T1 sequence (P52333 1-1124): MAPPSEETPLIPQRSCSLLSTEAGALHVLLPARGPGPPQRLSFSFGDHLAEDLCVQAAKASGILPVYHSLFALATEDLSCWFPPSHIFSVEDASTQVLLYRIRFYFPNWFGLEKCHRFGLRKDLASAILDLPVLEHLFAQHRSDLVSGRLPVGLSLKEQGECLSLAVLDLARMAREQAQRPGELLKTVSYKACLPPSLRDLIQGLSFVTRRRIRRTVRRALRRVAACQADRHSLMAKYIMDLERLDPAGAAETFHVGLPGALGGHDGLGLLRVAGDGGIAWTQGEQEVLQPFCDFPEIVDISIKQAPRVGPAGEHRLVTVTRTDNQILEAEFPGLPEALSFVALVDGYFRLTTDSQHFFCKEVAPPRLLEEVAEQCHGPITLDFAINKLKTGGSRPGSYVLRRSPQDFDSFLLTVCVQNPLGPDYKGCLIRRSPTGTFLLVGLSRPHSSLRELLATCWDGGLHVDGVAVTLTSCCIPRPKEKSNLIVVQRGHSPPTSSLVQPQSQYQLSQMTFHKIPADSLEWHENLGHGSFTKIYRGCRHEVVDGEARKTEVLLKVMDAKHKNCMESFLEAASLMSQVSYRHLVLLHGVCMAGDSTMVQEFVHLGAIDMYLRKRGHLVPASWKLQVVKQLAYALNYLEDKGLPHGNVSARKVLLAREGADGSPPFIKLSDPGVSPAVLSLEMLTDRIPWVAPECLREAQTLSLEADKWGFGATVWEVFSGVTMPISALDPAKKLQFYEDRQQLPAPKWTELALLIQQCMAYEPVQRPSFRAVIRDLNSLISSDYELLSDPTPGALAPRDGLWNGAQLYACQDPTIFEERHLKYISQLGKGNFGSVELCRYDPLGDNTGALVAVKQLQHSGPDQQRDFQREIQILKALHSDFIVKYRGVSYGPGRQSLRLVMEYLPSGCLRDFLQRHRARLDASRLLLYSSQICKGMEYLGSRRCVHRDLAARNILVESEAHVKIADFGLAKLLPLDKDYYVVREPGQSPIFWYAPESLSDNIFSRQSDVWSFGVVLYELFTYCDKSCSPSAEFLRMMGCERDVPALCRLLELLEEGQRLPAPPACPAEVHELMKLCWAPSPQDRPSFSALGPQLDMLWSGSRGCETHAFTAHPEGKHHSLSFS
Description: Kinase selectivity biochemical assay, JAK3. Particulars: biochemical assay.

In another assay the test system is A431. Description: Cell growth inhibition in EGFR overexpressed A431. It counts as cell-based. Conditions: Homo sapiens, A-431; cellular level; read-out: IC50, cell growth inhibition in EGFR overexppressed A431.
For assay [2], the target named is T2, BTK (Homo sapiens, UniProt Q06187). Description: BTK occupancy in whole blood ex vivo. It counts as cell-based. The arrangement: from tissue; host or cells: whole blood.
T2 sequence (Q06187 whole entry): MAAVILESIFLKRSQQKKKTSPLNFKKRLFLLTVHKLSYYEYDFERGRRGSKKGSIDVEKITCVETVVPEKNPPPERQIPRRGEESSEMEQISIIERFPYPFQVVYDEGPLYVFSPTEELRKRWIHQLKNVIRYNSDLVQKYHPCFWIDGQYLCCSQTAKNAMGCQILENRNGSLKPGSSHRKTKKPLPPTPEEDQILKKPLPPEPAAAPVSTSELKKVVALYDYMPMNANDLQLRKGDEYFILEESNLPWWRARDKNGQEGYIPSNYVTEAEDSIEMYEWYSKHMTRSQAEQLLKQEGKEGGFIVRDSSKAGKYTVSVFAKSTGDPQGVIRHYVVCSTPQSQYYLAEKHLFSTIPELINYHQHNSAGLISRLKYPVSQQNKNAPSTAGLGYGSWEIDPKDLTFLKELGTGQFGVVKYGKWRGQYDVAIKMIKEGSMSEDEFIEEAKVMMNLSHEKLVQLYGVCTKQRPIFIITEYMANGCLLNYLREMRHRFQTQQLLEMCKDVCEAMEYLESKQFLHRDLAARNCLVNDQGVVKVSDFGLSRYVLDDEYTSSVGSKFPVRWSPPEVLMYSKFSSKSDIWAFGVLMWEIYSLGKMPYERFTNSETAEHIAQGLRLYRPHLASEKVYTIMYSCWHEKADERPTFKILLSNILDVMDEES
For assay [3], the system named is B cells. Description: B cell inhibition in whole blood. Format: cell-based.
The target in assay [4] is T2, BTK. Description: BTK occupancy in B cell line (Ramos cells, biotinylated probe, AlphaScreen). It counts as cell-based. The procedure:
A total of 5 × 10^5 Ramos cells/well were plated in 96-well PDL-coated plates in DMEM with high glucose (GIBCO) supplemented with 10% FBS. Serial dilutions of LY3439943 in DMSO (final DMSO concentration, 0.4%) were incubated with the cells for 1 h at 37 °C. An equal volume of a covalent biotinylated BTK probe was added (final concentration, 167 nM), and the cells were incubated for another 1 h at 37 °C. The cells were lysed, and the amount of BTK was determined using the AlphaScreen IgG Detection Kit (Perkin Elmer 6760617R) and an anti-BTK antibody (Thermo Scientific Cat# MA5-14929) following the manufacturer’s instructions. The signal was measured at 615 nm with an Envision plate reader (Perkin Elmer).

The next assay has as its system CTLL-2. Put plainly: IL-2 induced T cell proliferation in CTLL-2. It counts as cell-based. Particulars: Mus musculus, cellular level.
Assay [5] deals with T2, BTK. Description: hBTK Lanthascreen biochemical activity. Background: Time-resolved FRET reads energy transfer from a long-lived donor to a nearby acceptor.
Assay [6] has as its target T2, BTK. Description: Kinase selectivity biochemical assay (FRET), BTK. Particulars: Supplementary Table 1, biochemical assay.

As usually defined, the pIC50 is the negative decadic logarithm of the IC50, by convention in mol/L. As for `C=CC(=O)Nc1cccc(Oc2nc(Nc3ccc(N4CCN(C(C)C)CC4)cc3)nc3ccoc23)c1` [HM71035], the “B cell-dependent T cell activation (IL-2 secretion, CD69 expression on T cells)” value in the assay on B cells [1] (B cells preincubated 1 h with compound, coculture with DO11.10 T cells) was “reduced in a dose-dependent fashion”. Besides, the pIC50 in the assay with B cells [1] (Mus musculus, B-cell, in vivo preactivated B cells, roughly, read-out: IC50 effect on the B cells (CD80 and CD86 expression)) was about 7.00; against JAK3, 7.41; in the assay on A431, under 6.30; against BTK [2] it was 6.77; in the assay on B cells [3] it was 6.36; on BTK [4] it was 8.22. Moreover, the pIC50 is under 6.30 in the assay on CTLL-2, 8.52 on BTK [5] and 8.52 against BTK [6].
